Data taken from patent US12528796B2, “Modulators of RAS GTPase” (Tosk, Inc., priority 2019, dated 2026).

tested on: SW620 cells (KRAS-G12V); assay: Cell proliferation / cytotoxicity assay (CellTiter-Glo 2.0); type: cell-based; settings: Homo sapiens, SW-620, 72 h, SW620 cell line (KRAS-G12V), 72 hours incubation, luminescence (CellTiter-Glo 2.0); read-out: 5W620 IC50
Method: Compounds are assayed for inhibition of cell proliferation and killing cancer cells. Cytotoxicity assays are conducted according to the following general procedure. SW620 cells (ATCC CCL-227) are maintained in DMEM Low Glucose (Corning 10-014-CV) media supplemented with 10% fetal bovine serum and 1% PenStrep and grown at 37° C. in 5% CO2. Cells are plated into 96 well flat bottom plates (2 million/plate, ˜20,000/well, 200 μL media/well). The cells are allowed to settle and adhere to the plate bottom overnight. Compounds are diluted in media from a 10 mM stock solution starting at 50 μM, using 2-fold dilutions, in a column in a 96-well plate. Media is removed from the plate containing cells and replaced with media containing diluted compounds. Plates are incubated 72 hours at 37° C. in 5% CO2. Plates were allowed to come to room temperature and 100 μL CellTiter-Glo 2.0 reagent (Promega, G924C) is added at room temperature. Plates are shaken for 2 minutes, then allowed to stand for 15 minutes. Luminescence is read with FLx800 (BioTek Instruments). Data is plotted with GraphPad Prizm 8.0.
Dose response curves for the cytotoxicity of exemplary compounds against SW620 (KRAS-G12V) and MIA PaCa-2 (KRAS-G12C) cell lines are shown in FIG. 1A-1J.

Structure (SMILES)	IC50 [µM]
Cc1nc(NC2CCN(C(=O)c3ccc(Cl)cc3)CC2)nc2ccc(-c3cccc4c3OCCO4)cc12 [Compound 2, (4-chlorophenyl)(4-((6-(2,3-dihydrobenzo[b][1,4]dioxin-5-yl)-4-methylquinazolin-2-yl)amino)piperidin-1-yl)methanone]	5 to 10
Cc1nc(NC2CCN(Cc3ccc(Cl)cc3)CC2)nc2ccc(-c3cccc4c3OCCO4)cc12 [Compound 3, N-(1-(4-chlorobenzyl)piperidin-4-yl)-6-(2,3-dihydrobenzo[b][1,4]dioxin-5-yl)-4-methylquinazolin-2-amine]	< 5
Cc1nc(NC2CCN(Cc3ccc(Cl)cc3)CC2)nc2ccc(-c3cccc4c3CCNC4)cc12 [Compound 4, N-(1-(4-chlorobenzyl)piperidin-4-yl)-4-methyl-6-(1,2,3,4-tetrahydroisoquinolin-5-yl)quinazolin-2-amine]	5 to 10
Cc1nc(NC2CCN(C(=O)c3ccc(Cl)cc3)CC2)nc2ccc(-c3cccc4c3CCNC4)cc12 [Compound 7]	5 to 10
CC(=O)N1CCc2c(cccc2-c2ccc3nc(NC4CCN(C(=O)c5ccc(Cl)cc5)CC4)nc(C)c3c2)C1 [Compound 8]	5 to 10
Cc1nc(N2CCC(N3Cc4ccccc4CC3=O)C2)nc2ccc(-c3cccc4c3OCCO4)cc12 (stereo not drawn) [Compound 9]	5 to 10
Cc1nc(N2CC[C@H](N3Cc4ccccc4CC3=O)C2)nc2ccc(-c3cccc4c3OCCO4)cc12 [Compound 10]	5 to 10
Cc1nc(NC2CCN(C(=O)c3ccc(Cl)cc3)[C@@H](C)C2)nc2ccc(-c3cccc4c3OCCO4)cc12 (stereo partly drawn) [Compound 11]	5 to 10
Cc1nc(N[C@@H]2CCN(C(=O)c3ccc(Cl)cc3)[C@H](C)C2)nc2ccc(-c3cccc4c3OCCO4)cc12 [Compound 12]	5 to 10
Cc1ncccc1C(=O)N1CCC(Nc2nc(C)c3cc(-c4cccc5c4OCCO5)ccc3n2)CC1 [Compound 13]	< 5
Cc1nc(NC2CCN(C(=O)c3ccc(F)cc3)CC2)nc2ccc(-c3cccc4c3OCCO4)cc12 [Compound 14]	< 5
Cc1nc(NC2CCN(C(=O)c3cccc(Cl)c3)CC2)nc2ccc(-c3cccc4c3OCCO4)cc12 [Compound 15]	5 to 10
Cc1nc(NC2CCN(C(=O)c3ccccc3Cl)CC2)nc2ccc(-c3cccc4c3OCCO4)cc12 [Compound 16]	< 5
COc1ccccc1C(=O)N1CCC(Nc2nc(C)c3cc(-c4cccc5c4OCCO5)ccc3n2)CC1 [Compound 17]	5 to 10
Cc1nc(NC2CCN(C(=O)c3ccc(Cl)cc3)CC2)nc2ccc(-c3cccc4[nH]nc(C)c34)cc12 [Compound 18]	< 5
Cc1ccc2ccc(F)c(-c3ccc4nc(NC5CCN(Cc6ccc(F)cc6)CC5)nc(C)c4c3)c2n1 [Compound 19]	5 to 10
COc1c(Cl)cc(F)cc1-c1ccc2nc(NC3CCN(Cc4ccc(Cl)cc4)CC3)nc(C)c2c1 [Compound 20]	< 5
Cc1nc(NC2CCN(Cc3ccc(Cl)cc3)CC2)nc2ccc(-c3cccc4c3CCCC4)cc12 [Compound 21]	< 5
Cc1nc(NC2CCN(Cc3ccc(Cl)cc3)CC2)nc2ccc(-c3ccnc4ccc(Cl)cc34)cc12 [Compound 22]	5 to 10
Cc1nc(NC2CCN(C(=O)c3ccc(Cl)cc3)CC2)nc2ccc(-c3cccc4c3CCCC4)cc12 [Compound 23]	< 5
Cc1ccc2[nH]ncc2c1-c1ccc2nc(NC3CCN(Cc4ccc(Cl)cc4)CC3)nc(C)c2c1 [Compound 24]	< 5

Structure (SMILES)	IC50 [µM]
Cc1nc(NC2CCN(C(=O)c3cccc(Cl)c3)[C@H](C)C2)nc2ccc(-c3cccc4c3OCCO4)cc12 (stereo partly drawn) [Compound 25]	5 to 10
COc1ccccc1C(=O)N1CCC(Nc2nc(C)c3cc(-c4cccc5c4OCCO5)ccc3n2)C[C@H]1C (stereo partly drawn) [Compound 26]	5 to 10
Cc1nc(NC2CCN(C(=O)c3ccccc3Cl)[C@H](C)C2)nc2ccc(-c3cccc4c3OCCO4)cc12 (stereo partly drawn) [Compound 27]	< 5
COc1c(Cl)cccc1-c1ccc2nc(NC3CCN(Cc4ccc(Cl)cc4)CC3)nc(C)c2c1 [Compound 28]	< 5
Cc1cccc(-c2ccc3nc(NC4CCN(Cc5ccc(Cl)cc5)CC4)nc(C)c3c2)c1C [Compound 29]	< 5
Cc1nc(NC2CCN(Cc3ccc(Cl)cc3)CC2)nc2ccc(-c3cc(F)cc4c3OC(C)(C)C(=O)N4)cc12 [Compound 30]	< 5
Cc1nc(NC2CCN(Cc3ccc(Cl)cc3)CC2)ncc1-c1cccc2c1CCCC2 [Compound 31]	< 5
Cc1nc(NC2CCN(Cc3ccc(Cl)cc3)CC2)nc2ccc(-c3cccc4c3C(=O)CCC4)cc12 [Compound 32]	< 5
Cc1nc(NC2CCN(Cc3ccc(Cl)cc3)CC2)nc2ccc(-c3cccc4c3/C(=N/O)CCC4)cc12 [Compound 33]	< 5
Cc1nc(NC(C)c2cccnc2)nc2ccc(-c3cccc4c3CCCC4)cc12 (stereo not drawn) [Compound 34]	5 to 10
Cc1nc(NC2CCN(C(=O)c3ccccc3Cl)CC2)nc2ccc(-c3cccc4c3CCCC4)cc12 [Compound 36]	5 to 10
Cc1nc(N[C@@H]2CC[C@@H](Cc3ccc(Cl)cc3)NC2)nc2ccc(-c3cccc4c3CCCC4)cc12 [Compound 37]	5 to 10
Cc1nc(NC2CCN(C(=O)c3ccc(Cl)cc3)CC2)ncc1-c1ccccc1C(C)(O)c1ccccc1 (stereo not drawn) [Compound 38]	5 to 10
COc1cccc(-c2ccc3nc(NC4CCN(Cc5ccc(Cl)cc5)CC4)nc(C)c3c2)c1OC [Compound 39]	< 5
Cc1nc(NC2CCN(Cc3ccc(Cl)cc3)CC2)nc2ccc(-c3cccc4c3OCC3(CC3)CO4)cc12 [Compound 41]	5 to 10
Cc1nc(NC2CCN(Cc3ccc(Cl)cc3)CC2)nc2ccc(-c3ccnc4[nH]ccc34)cc12 [Compound 42]	< 5
COc1c(Cl)cccc1-c1ccc2nc(NC3CCN(C(=O)c4ccccc4Cl)CC3)nc(C)c2c1 [Compound 43]	5 to 10
Cc1nc(NC2CCN(Cc3ccc(Cl)cc3)CC2)nc2ccc(-c3ccncc3C#N)cc12 [Compound 44]	5 to 10
Cc1nc(NC2CCN(Cc3ccc(Cl)cc3)CC2)nc2ccc(-c3ccncc3C(N)=O)cc12 [Compound 45]	< 5
Cc1nc(NC2CCN(Cc3ccc(Cl)cc3)CC2)nc2ccc(-c3ccnc(N4CCOCC4)c3F)cc12 [Compound 46]	5 to 10
Cc1nc(NC2CCN(Cc3ccc(Cl)cc3)CC2)nc2ccc(-c3ccnc(N4CCCCC4)c3F)cc12 [Compound 47]	< 5

Structure (SMILES)	IC50 [µM]
COc1cccc(-c2ccc3nc(NC4CCN(Cc5ccc(Cl)cc5)CC4)nc(C)c3c2)n1 [Compound 48]	5 to 10
COc1cnccc1-c1ccc2nc(NC3CCN(Cc4ccc(Cl)cc4)CC3)nc(C)c2c1 [Compound 49]	< 5
COc1cc(-c2ccc3nc(NC4CCN(Cc5ccc(Cl)cc5)CC4)nc(C)c3c2)ccn1 [Compound 50]	5 to 10
COc1cc(-c2ccc3nc(NC4CCN(Cc5ccc(Cl)cc5)CC4)nc(C)c3c2)c(Cl)cn1 [Compound 51]	< 5
Cc1nccc(-c2ccc3nc(NC4CCN(Cc5ccc(Cl)cc5)CC4)nc(C)c3c2)c1Cl [Compound 52]	< 5
COc1nccc(-c2ccc3nc(NC4CCN(Cc5ccc(Cl)cc5)CC4)nc(C)c3c2)c1Cl [Compound 53]	< 5
Cc1ncccc1-c1ccc2nc(NC3CCN(Cc4ccc(Cl)cc4)CC3)nc(C)c2c1 [Compound 54]	< 5
COc1ncccc1-c1ccc2nc(NC3CCN(Cc4ccc(Cl)cc4)CC3)nc(C)c2c1 [Compound 55]	< 5
Cc1nc(NC2CCN(Cc3ccc(Cl)cc3)CC2)nc2ccc(-c3cccnc3OC(C)C)cc12 [Compound 56]	< 5
Cc1nc(NC2CCN(Cc3ccc(Cl)cc3)CC2)nc2ccc(-c3cccnc3OCC(C)C)cc12 [Compound 57]	5 to 10
Cc1nc(NC2CCN(Cc3ccc(Cl)cc3)CC2)nc2ccc(-c3cncc4[nH]ccc34)cc12 [Compound 58]	5 to 10
Cc1nc(NC2CCN(Cc3ccc(Cl)cc3)CC2)nc2ccc(-c3cncc4ccccc34)cc12 [Compound 59]	5 to 10
Cc1ccc2ccc(F)c(-c3ccc4nc(NC5CCNCC5)nc(C)c4c3)c2n1 [Compound 60]	< 5
Cc1ccc2ccc(F)c(-c3ccc4nc(NC5CCN(C(=O)c6ccccc6Cl)CC5)nc(C)c4c3)c2n1 [Compound 61]	5 to 10
Cc1nc(NC2CCN(Cc3ccc(Cl)cc3)CC2)nc2ccc(-c3cccc4c3NC(=O)CO4)cc12 [Compound 62]	< 5
Cc1nc(NC2CCN(Cc3ccc(Cl)cc3)CC2)nc2ccc(-c3cccc4c3C(=O)CCO4)cc12 [Compound 63]	< 5
Cc1nc(NC2CCN(Cc3ccc(Cl)cc3)CC2)nc2ccc(-c3cccc4c3CC(=O)CO4)cc12 [Compound 64]	< 5
Cc1nc(NC2CCN(Cc3ccc(Cl)cc3)CC2)nc2ccc(-c3cccc4c3NC(=O)CC4)cc12 [Compound 65]	< 5
Cc1ncccc1-c1ccc2nc(NC3CCN(C(=O)c4ccc(Cl)cc4)CC3)nc(C)c2c1 [Compound 66]	5 to 10
Cc1nc(N[C@H]2CC[C@@H](NC3Cc4cccc(Cl)c4C3)CC2)nc2ccc(Br)cc12 (stereo partly drawn) [Compound 67]	5 to 10

same assay, conditions: SW620 cell line (KRAS-G12V), 72 hours incubation, luminescence (CellTiter-Glo 2.0); read-out: 5W620 IC50

Structure (SMILES)	IC50 [µM]
Cc1nc(NC2CCN(C(=O)c3ccc(Cl)cc3)CC2)nc2ccc(-c3cccc4c3CCCC4)cc12 [Compound 35]	5 to 10
